Activity calls are given as the source filed them. No rule for the calls is given here.

Consider 14 compounds from PubChem BioAssay AID651581 (Sanford-Burnham Center for Chemical Genomics, 2012).

The target in assay [1] is Hypoxia-inducible factor 1-alpha (Homo sapiens) (UniProt Q16665). As to the kind of experiment: potency against HIF reporters across cell lines – luminescence, panel, selectivity assay for HIF-2a inhibitor project, dose response (AID 651581). Conditions: human cell HIF reporter, HIF-1a.
In assay [2] the target is Endothelial PAS domain-containing protein 1 (Homo sapiens) (UniProt Q99814). Described as above. Conditions: human cell HIF reporter.

Sequence of Hypoxia-inducible factor 1-alpha (Homo sapiens) (Q16665 whole entry, looked up, the tested form may be a part): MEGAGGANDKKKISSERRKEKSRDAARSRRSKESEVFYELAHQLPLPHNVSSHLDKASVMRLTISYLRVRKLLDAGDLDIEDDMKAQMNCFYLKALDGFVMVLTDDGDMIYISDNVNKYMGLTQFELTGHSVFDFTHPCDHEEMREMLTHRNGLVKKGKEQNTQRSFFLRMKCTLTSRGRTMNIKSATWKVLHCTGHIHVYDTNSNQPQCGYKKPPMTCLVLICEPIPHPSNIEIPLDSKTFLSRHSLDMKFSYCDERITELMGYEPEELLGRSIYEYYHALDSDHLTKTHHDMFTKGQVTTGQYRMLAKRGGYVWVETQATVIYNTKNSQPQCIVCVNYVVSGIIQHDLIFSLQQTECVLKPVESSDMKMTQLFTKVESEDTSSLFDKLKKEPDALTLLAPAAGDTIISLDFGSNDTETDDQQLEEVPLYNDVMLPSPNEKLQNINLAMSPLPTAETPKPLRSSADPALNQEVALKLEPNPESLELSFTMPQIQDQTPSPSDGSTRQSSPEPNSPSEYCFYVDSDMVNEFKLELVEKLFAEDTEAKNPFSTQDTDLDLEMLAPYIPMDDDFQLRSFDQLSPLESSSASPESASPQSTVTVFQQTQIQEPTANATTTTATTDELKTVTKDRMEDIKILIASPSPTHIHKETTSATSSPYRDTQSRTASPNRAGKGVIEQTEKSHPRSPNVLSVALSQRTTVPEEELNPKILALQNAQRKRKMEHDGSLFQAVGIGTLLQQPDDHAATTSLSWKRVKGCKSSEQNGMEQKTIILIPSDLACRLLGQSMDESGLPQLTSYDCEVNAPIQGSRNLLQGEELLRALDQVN

For `CCOc1ccc(OCc2cccc(C(=O)N3CCOCC3)c2)cc1`, the 50% inhibitory concentration (IC50) in assay [1] (run 1) was greater than 99 µM; in assay [1] (run 2) it was greater than 99 µM; in assay [2] (HIF-2a PANC, mean of runs) it was > 99 µM (inactive); in assay [2] (HIF-2a PANC, run 1), greater than 99 µM; in assay [2] (HIF-2a PANC, run 2), greater than 99 µM; in assay [2] (HIF-2a, run 1), 7.59 µM. Also, the IC50 in assay [2] (HIF-2a, run 2) was less than 30 µM.
Consider `CCOC(=O)Cc1csc(N/N=C/c2ccc(C(F)(F)F)cc2)n1`, for which the IC50 is less than 10 µM in assay [1] (run 1); greater than 99 µM in assay [1] (run 2); 0.711 µM in assay [2] (HIF-2a PANC, mean of runs); 0.556 µM in assay [2] (HIF-2a PANC, run 1); 0.866 µM in assay [2] (HIF-2a PANC, run 2); greater than 99 µM in assay [2] (HIF-2a, run 1). In assay [2] (HIF-2a, run 2), this compound registered a half-maximal inhibitory concentration (IC50) of 0.221 µM.
With `Nc1ccc(-c2nnn(CC(=O)N3CCCCC3)n2)cc1`, the half-inhibitory concentration (IC50) in assay [1] (run 1) is 15.7 µM; in assay [1] (run 2) it was greater than 99 µM; in assay [2] (HIF-2a PANC, run 1), greater than 99 µM; in assay [2] (HIF-2a PANC, run 2), 33.3 µM; in assay [2] (HIF-2a, run 1), 18.3 µM; in assay [2] (HIF-2a, run 2) it was 17 µM. The IC50 result in assay [2] (HIF-2a, mean of runs) is “inactive”.
Consider `O=C(Nc1ccc(NC(=O)c2cccs2)cc1)c1ccc2c(c1)OCCO2`, for which the IC50 in assay [1] (mean of runs) was > 99 µM (inactive); in assay [1] (run 1) it was greater than 99 µM; in assay [1] (run 2), greater than 99 µM; in assay [2] (HIF-2a PANC, mean of runs), 1.93 µM; in assay [2] (HIF-2a PANC, run 1), 2.06 µM; in assay [2] (HIF-2a PANC, run 2), 1.79 µM. Further, the IC50 is 22 µM in assay [2] (HIF-2a, run 1) and greater than 99 µM in assay [2] (HIF-2a, run 2).
On to `CC(=O)Nc1ccc(NC(=O)c2ccc(-c3ccnn3C)c3ccoc23)cc1`, for which the IC50 was 3.89 µM in assay [1] (run 1); greater than 99 µM in assay [1] (run 2); 1.85 µM in assay [2] (HIF-2a PANC, mean of runs); 2.03 µM in assay [2] (HIF-2a PANC, run 1); 1.67 µM in assay [2] (HIF-2a PANC, run 2); 0.858 µM in assay [2] (HIF-2a, mean of runs). In addition, the IC50 in assay [2] (HIF-2a, run 1) is 0.938 µM; in assay [2] (HIF-2a, run 2), 0.777 µM.
`CCOC(=O)C1CCN(Cc2cc(=O)oc3c(C)c(C)ccc23)CC1`: the IC50 in assay [1] (mean of runs) is 28.8 µM; in assay [1] (run 1), 31.7 µM; in assay [1] (run 2), 25.9 µM; in assay [2] (HIF-2a PANC, mean of runs), 14.2 µM; in assay [2] (HIF-2a PANC, run 1) it was 19.7 µM; in assay [2] (HIF-2a PANC, run 2), 8.77 µM. Besides, the IC50 is 7.52 µM in assay [2] (HIF-2a, mean of runs); 7.96 µM in assay [2] (HIF-2a, run 1); 7.07 µM in assay [2] (HIF-2a, run 2).
As to `Cc1nc2cc(-c3ccc(Cl)cc3)nn2c(C)c1CCC(=O)NCc1ccco1`, the IC50 result in assay [1] (mean of runs) is “inactive”. Besides, the 50% inhibitory concentration (IC50) was 3.16 µM in assay [1] (run 1); 2.84 µM in assay [1] (run 2); 0.787 µM in assay [2] (HIF-2a PANC, mean of runs); 0.773 µM in assay [2] (HIF-2a PANC, run 1); 0.801 µM in assay [2] (HIF-2a PANC, run 2); 1.43 µM in assay [2] (HIF-2a, mean of runs). The 50% inhibitory concentration (IC50) came out at 1.43 µM in assay [2] (HIF-2a, run 1) and 1.44 µM in assay [2] (HIF-2a, run 2).
For `Cc1csc(NC(=O)CCc2c(C)nc3cc(-c4ccc(Cl)cc4)nn3c2C)n1`, the IC50 in assay [1] (run 1) is 0.486 µM; in assay [1] (run 2) it was less than 10 µM; in assay [2] (HIF-2a PANC, run 1) it was less than 0.19 µM; in assay [2] (HIF-2a PANC, run 2), 0.308 µM; in assay [2] (HIF-2a, run 1), less than 1 µM; in assay [2] (HIF-2a, run 2), 0.344 µM.
As to `CCNC(=O)NC(=O)COC(=O)CCCSc1nc2ccccc2s1`, the IC50 in assay [1] (mean of runs) was 17.9 µM; in assay [1] (run 1), 28.3 µM; in assay [1] (run 2), 7.51 µM; in assay [2] (HIF-2a PANC, mean of runs) it was 12.1 µM; in assay [2] (HIF-2a PANC, run 1) it was 10.8 µM; in assay [2] (HIF-2a PANC, run 2) it was 13.4 µM. Moreover, the IC50 in assay [2] (HIF-2a, mean of runs) was 5.05 µM; in assay [2] (HIF-2a, run 1), 5.08 µM; in assay [2] (HIF-2a, run 2), 5.02 µM.
Consider `CCOC(=O)c1ccc(Oc2nc(NC(C)(C)C)nc(N(C)C)n2)cc1`, for which the IC50 entry was “inactive” in assay [1] (mean of runs); “inactive” in assay [2] (HIF-2a PANC, mean of runs); “inactive” in assay [2] (HIF-2a, mean of runs). Moreover, the IC50 in assay [1] (run 1) amounted to 21.8 µM; in assay [1] (run 2), 31.4 µM; in assay [2] (HIF-2a PANC, run 1) it was 20.7 µM; in assay [2] (HIF-2a PANC, run 2) it was 51.9 µM; in assay [2] (HIF-2a, run 1), 8.84 µM; in assay [2] (HIF-2a, run 2), 11.9 µM.
Take `CN(C)c1ccc(Nc2nc(N)c3ccccc3n2)cc1`: the IC50 in assay [1] (run 1) is 13.7 µM; in assay [1] (run 2) it was less than 30 µM; in assay [2] (HIF-2a PANC, mean of runs) it was 17.9 µM; in assay [2] (HIF-2a PANC, run 1) it was 24.8 µM; in assay [2] (HIF-2a PANC, run 2), 11 µM; in assay [2] (HIF-2a, mean of runs), < 30 µM (inactive). For the same compound, the IC50 in assay [2] (HIF-2a, run 1) was less than 30 µM; in assay [2] (HIF-2a, run 2), less than 30 µM.
With `Cc1ccc(C(C)C)c(OCc2ccc(-c3nnco3)cc2)c1`, the half-maximal inhibitory concentration (IC50) in assay [1] (run 1) is greater than 99 µM; in assay [1] (run 2) it was greater than 99 µM; in assay [2] (HIF-2a PANC, mean of runs), > 99 µM (inactive); in assay [2] (HIF-2a PANC, run 1), greater than 99 µM; in assay [2] (HIF-2a PANC, run 2) it was greater than 99 µM; in assay [2] (HIF-2a, mean of runs) it was 1.7 µM. Besides, the half-maximal inhibitory concentration (IC50) came to 1.92 µM in assay [2] (HIF-2a, run 1) and 1.49 µM in assay [2] (HIF-2a, run 2).
For `O=C(Nc1sc2c(c1C(=O)O)CCC2)c1ccccc1Cl`, the IC50 is 85.7 µM in assay [1] (run 1); greater than 99 µM in assay [1] (run 2); greater than 99 µM in assay [2] (HIF-2a PANC, run 1); 50.5 µM in assay [2] (HIF-2a PANC, run 2); > 99 µM (inactive) in assay [2] (HIF-2a, mean of runs); greater than 99 µM in assay [2] (HIF-2a, run 1). In addition, the half-inhibitory concentration (IC50) in assay [2] (HIF-2a, run 2) is greater than 99 µM.
With `COc1ccc(OCc2cccc(C(=O)Nc3cc(C)on3)c2)cc1`, the IC50 in assay [1] (run 1) was greater than 99 µM; in assay [1] (run 2), greater than 99 µM; in assay [2] (HIF-2a PANC, run 1), greater than 99 µM; in assay [2] (HIF-2a PANC, run 2), less than 30 µM; in assay [2] (HIF-2a, mean of runs), < 30 µM (inactive); in assay [2] (HIF-2a, run 1) it was less than 30 µM. Moreover, in assay [2] (HIF-2a, run 2), the IC50 is less than 30 µM.

A word on the IC50: it is the midpoint of a concentration-inhibition curve.
